Data on 17 compounds can be found in patent US20210253562A1, “ACYLSUFONAMIDE COMPOUNDS USEFUL AS EP3 RECEPTOR ANTAGONISTS” (Janssen Pharmaceutica NV, priority 2018, published 2021).

The target in assay [1] is T1, CHO cells over-expressing the EP3 receptor (Homo sapiens, UniProt P43115).
T1 construct: expressed in transfected cells; host or cells: CHO cells
T1 sequence (P43115 1-390): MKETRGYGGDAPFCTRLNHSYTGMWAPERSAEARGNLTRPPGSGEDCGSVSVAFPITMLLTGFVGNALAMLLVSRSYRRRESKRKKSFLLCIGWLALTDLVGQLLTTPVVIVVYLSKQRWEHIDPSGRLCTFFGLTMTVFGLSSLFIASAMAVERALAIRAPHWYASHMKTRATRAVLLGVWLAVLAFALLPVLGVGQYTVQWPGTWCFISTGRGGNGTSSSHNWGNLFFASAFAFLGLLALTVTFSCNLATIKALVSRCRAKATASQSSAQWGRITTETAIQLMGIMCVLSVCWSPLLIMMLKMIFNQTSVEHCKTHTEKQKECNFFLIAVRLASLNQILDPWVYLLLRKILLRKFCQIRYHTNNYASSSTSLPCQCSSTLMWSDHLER
In words: CHO cell cAMP assay; EP3 cAMP antagonist dose response (sulprostone reference), HTRF. The assay is classed as cell-based. To be noted: sulprostone 700 nM (EC80) and FSK 2 μM (EC70); read-out: CHO_cAMP IC50. Here is the method:
Biological Example 2: CHO Cell cAMP Assay
This assay monitored the cAMP generation in CHO cells over-expressing the EP3 receptor in the presence or absence of antagonist stimulated with Forskolin (FSK, CAS No. 66428-89-5) and a known EP3 Agonist (sulprostone, CAS No. 60325-46-4). For detection, a homogeneous competitive immunoassay (Time Resolved Fluorescence Energy Transfer (hTR-FRET)) was used.
Cells (6K cells per well) were plated in Poly-D-Lysine coated plates the day before the assay was to be run and were incubated at 37° C. One hour before the assay the media was removed and replaced with assay buffer (500 mL HBSS (+Ca)+2.5 mL 1M HEPES+6.66 mL 7.5% BSA) (starved at 37° C.). At the start of the assay the buffer was removed from the cells and replaced with buffer containing test compound(s). Sulprostone at an EC80 dose (700 nM) and FSK at an EC70 dose (2 μM) were added to initiate the reaction (37° C. for 30 minutes).
FSK increases cAMP production and sulprostone decreases cAMP production produced by FSK. In this assay, EP3 antagonists will increase the cAMP to the level of cAMP generated by FSK alone.
The reaction was terminated with the addition of cAMP detection reagents (labeled cAMP and labeled cAMP antibody in lysis buffer (HTRF reagent, which utilizes a cryptate-labeled anti-cAMP and d2-labeled cAMP-d2 is an HTRF acceptor fluorophore)). Approximately one hour later the plates were read on an Envision (Perkin Elmer) in HTRF mode. Well results were calculated based on a ratio of counts at 665 nm and 615 nm (data output was a calculation of the ratio: (read @665 nm/read @ 615 nm)*1000. For test compounds dosed serially, well results were converted to nM cAMP using a cAMP standard run on each plate. nM cAMP from a set of wells dosed with test compound(s) were plotted. nM cAMP was calculated for each well from a standard curve located on each plate (P1-12 and P13-24) by first calculating the slope and deriving the intercept(b):
[formula] NScAMP_s tan dard_cruve=m(nM cAMP_s tan dard_curve)+b
NSP, NSN, NSsample were converted to nM cAMP using the following equation: […]
IC50 values were determined from a […] (Hill equation) of a single 11-point compound dosing. A best-fit curve was determined by the minimum sum of squares method plotting cAMP produced vs compound concentration.
(In general: cAMP levels reflect the balance of adenylyl cyclase and phosphodiesterase activity.)

The target in assay [2] is T2, EP3 membrane (EP3 receptor) (Homo sapiens, UniProt P43115).
T2 construct: purchased Millipore HTS092M
T2 sequence (P43115 1-390): T1 sequence (P43115 1-390)
In words: [3H]-PGE2 binding; EP3 competition binding (SPA). On the procedure:
Biological Example 1: [3H]-PGE2 Binding
EP3 competition binding was determined using the following materials and experimental conditions: • Beads=Perkin Elmer RPNQ0001 • [3H]PGE2=Perkin Elmer NET428025UC • 384-well plate=Perkin Elmer 6007290 • EP3 membrane=Millipore HTS092M • Membrane concentration=2 μg/well • Beads concentration=0.25 mg/well • [3H]-PGE2=2 nM; DMSO—0.1% • Binding buffer=50 mM Tris, 10 mM MgCl2, 1 mM EDTA, PH 7.4.
The reaction system was prepared by mixing 5 μl of unlabeled compound; 5 μl of diluted [3H]-PGE2; 5 μl of diluted membrane; and 15 μl of SPA beads dissolved in binding buffer (adding in the following sequence: Unlabeled compound, [3H]-PGE2, Membrane and Beads).
The binding buffer was removed from refrigeration (@ 4° C.) and allowed to warm to room temperature. Test compound (@ stock concentration of […] in DMSO) was serial dilutes (1:3) with 100% DMSO using Echo plate. Diluted test compound (30 nL) was dispensed to the 384-well assay plate (using Echo 550 Labcyte System). To each well was then added assay buffer (5 μl) and each well was spun. Beads were weighed out, dissolved in assay buffer to a concentration of 0.25 mg/15 μl. Original membrane was diluted with assay buffer to a concentration of 2 μg/5 μl. Original [3H]-PGE2 with diluted with assay buffer to a concentration of 12 nM. To each test well were then added diluted [3H]-PGE2 (5 μl), diluted membrane (5 μl), and dissolved beads (15 μl). The plate was equilibrated at room temperature on a plate shaker for 2 hours and then read with a TOPCOUNT scintillation plate reader. Results were analyzed using a Prism program with non-linear regression, one-site fit for Ki.

A word on the IC50: it is the concentration that gives 50% inhibition. A word on the Ki: it is the dissociation constant of the complex between target and ligand, obtained from inhibition or displacement. Higher therefore signals lower affinity.

Where only a bound is given, the exact number is not on record here.

Turning to `COc1ccc(Cl)cc1S(=O)(=O)NC(=O)NC/C(F)=C1\CCCc2cnn(-c3ccc4ccccc4c3)c21` [Compound #115, (Z)-5-chloro-N-((2-fluoro-2-(1-(naphthalen-2-yl)-1,4,5,6-tetrahydro-7H-indazol-7-ylidene)ethyl)carbamoyl)-2-methoxybenzenesulfonamide], in assay [1], the IC50 was found to be 4200 nM. In assay [2], this compound came in with an inhibition constant Ki of 1100 nM.

Take `O=C(NC/C(F)=C1\CCCc2cnn(-c3ccc4ccccc4c3)c21)NS(=O)(=O)c1ccc2c(c1)OCCO2` [Compound #114, (Z)—N-((2-fluoro-2-(1-(naphthalen-2-yl)-1,4,5,6-tetrahydro-7H-indazol-7-ylidene)ethyl)carbamoyl)-2,3-dihydrobenzo[b][1,4]dioxine-6-sulfonamide]: the half-inhibitory concentration (IC50) in assay [1] is more than 20000 nM. The compound further had an inhibition constant (Ki) in assay [2] of 14500 nM. For `COc1ccc(F)cc1S(=O)(=O)NC(=O)NC/C(F)=C1/CCCc2cnn(-c3ccc4ccccc4c3)c21` [Compound #112, (E)-5-fluoro-N-((2-fluoro-2-(1-(naphthalen-2-yl)-1,4,5,6-tetrahydro-7H-indazol-7-ylidene)ethyl)carbamoyl)-2-methoxybenzenesulfonamide], the IC50 in assay [1] was more than 20000 nM. The inhibitory constant (Ki) in assay [2] was more than 10000 nM. For `COc1ccccc1S(=O)(=O)NC(=O)NC/C=C1\CCCc2cnn(Cc3ccc(Cl)cc3Cl)c21` [Compound #39, (E)-N-((2-(1-(2,4-dichlorobenzyl)-1,4,5,6-tetrahydro-7H-indazol-7-ylidene)ethyl)carbamoyl)-2-methoxybenzenesulfonamide], the IC50 in assay [1] is 114 nM. In assay [2], the inhibition constant Ki worked out at 62 nM. For `COc1ccc(F)c(S(=O)(=O)NC(=O)NC/C=C2\COCc3cnn(Cc4ccc(Cl)cc4Cl)c32)c1` [Compound #68, (Z)—N-((2-(1-(2,4-dichlorobenzyl)-1,4-dihydropyrano[4,3-c]pyrazol-7(6H)-ylidene)ethyl)carbamoyl)-2-fluoro-5-methoxybenzenesulfonamide] the same measures were 32 nM and 27 nM.

`O=C(NS(=O)(=O)c1ccc(Cl)cc1)OC/C=C1\CCCc2c(C(F)F)nn(Cc3ccc(Cl)cc3Cl)c21` [Compound #32, (E)-2-(1-(2,4-dichlorobenzyl)-3-(difluoromethyl)-1,4,5,6-tetrahydro-7H-indazol-7-ylidene)ethyl ((4-chlorophenyl)sulfonyl)carbamate]: in assay [1], the IC50 was found to be 1300 nM. In assay [2], this compound came in with a Ki of 168 nM. For `O=C(NC/C(F)=C1/CCCc2onc(-c3ccc(Cl)cc3)c21)NS(=O)(=O)c1ccc(Cl)cc1` [Compound #96, (E)-4-chloro-N-((2-(3-(4-chlorophenyl)-6,7-dihydrobenzo[d]isoxazol-4(5H)-ylidene)-2-fluoroethyl)carbamoyl)benzenesulfonamide] the same measures were more than 20000 nM and more than 10000 nM. For `O=C(NC/C=C1\CCCc2cnn(Cc3ccc(Cl)cc3Cl)c21)NS(=O)(=O)c1cc2ccccc2o1` [Compound #28, (E)-N-((2-(1-(2,4-dichlorobenzyl)-1,4,5,6-tetrahydro-7H-indazol-7-ylidene)ethyl)carbamoyl)benzofuran-2-sulfonamide] the same measures were 27 nM and 6 nM. In the case of `CC(C)S(=O)(=O)NC(=O)C/C=C1\CCCc2cnn(Cc3ccc(Cl)cc3Cl)c21` [Compound #14, (E)-3-(1-(2,4-dichlorobenzyl)-1,4,5,6-tetrahydro-7H-indazol-7-ylidene)-N-(isopropylsulfonyl)propenamide], the IC50 in assay [1] is 3700 nM. The Ki in assay [2] is 2000 nM. For `O=C(NC/C(F)=C1/CCCc2cnn(Cc3ccc(Cl)cc3Cl)c21)NS(=O)(=O)c1cc(Cl)c(Cl)s1` [Compound #45, (E)-4,5-dichloro-N-((2-(1-(2,4-dichlorobenzyl)-1,4,5,6-tetrahydro-7H-indazol-7-ylidene)-2-fluoroethyl)carbamoyl)thiophene-2-sulfonamide] the same measures were 6700 nM and 1300 nM. `Cc1c(S(=O)(=O)NC(=O)NC/C(F)=C2\CCCc3cnn(Cc4ccc(Cl)cc4Cl)c32)cnn1C` [Compound #169, (Z)—N-((2-(1-(2,4-dichlorobenzyl)-1,4,5,6-tetrahydro-7H-indazol-7-ylidene)-2-fluoroethyl)carbamoyl)-1,5-dimethyl-1H-pyrazole-4-sulfonamide]: the affinity in assay [2], expressed as Ki, was 83 nM. In assay [2], `O=C(NC/C(F)=C1\COCc2cnn(C3CCN(c4ccc(F)cc4)CC3)c21)NS(=O)(=O)c1cc(Cl)c(Cl)s1` [Compound #144, (E)-4,5-dichloro-N-((2-fluoro-2-(1-(1-(4-fluorophenyl)piperidin-4-yl)-1,4-dihydropyrano[4,3-c]pyrazol-7(6H)-ylidene)ethyl)carbamoyl)thiophene-2-sulfonamide] registered a Ki of 62 nM.

Regarding `Cc1cc(S(=O)(=O)NC(=O)NC/C(F)=C2\CCCc3cnn(Cc4ccc(Cl)cc4Cl)c32)sc1C` [Compound #142, (Z)—N-((2-(1-(2,4-dichlorobenzyl)-1,4,5,6-tetrahydro-7H-indazol-7-ylidene)-2-fluoroethyl)carbamoyl)-4,5-dimethylthiophene-2-sulfonamide], the inhibition constant (Ki) in assay [2] was determined as 8 nM. Same read-out and setting: then `O=C(NC/C(F)=C1\COCc2onc(Cc3ccc(Cl)cc3Cl)c21)NS(=O)(=O)c1cc(Cl)c(Cl)s1` [Compound #145, (E)-4,5-dichloro-N-((2-(3-(2,4-dichlorobenzyl)-5H-pyrano[4,3-d]isoxazol-4(7H)-ylidene)-2-fluoroethyl)carbamoyl)thiophene-2-sulfonamide], with 6 nM; and `CN1CCC(n2ncc3c2/C(=C/CNC(=O)NS(=O)(=O)c2cc(Cl)c(Cl)s2)CCC3)CC1` [Compound #151, (E)-4,5-dichloro-N-((2-(1-(1-methylpiperidin-4-yl)-1,4,5,6-tetrahydro-7H-indazol-7-ylidene)ethyl)carbamoyl)thiophene-2-sulfonamide], with 102 nM. The same measure, in the same setting: then `COc1ccc(S(=O)(=O)NC(=O)NC/C(F)=C2\COCc3cnn(Cc4ccc(Cl)cc4Cl)c32)cc1F` [Compound #161, (E)-N-((2-(1-(2,4-dichlorobenzyl)-1,4-dihydropyrano[4,3-c]pyrazol-7(6H)-ylidene)-2-fluoroethyl)carbamoyl)-3-fluoro-4-methoxybenzenesulfonamide], with 57 nM.

In assay [2], `Cc1cc(S(=O)(=O)NC(=O)NC/C=C2\CCCc3cnn(Cc4ccc(Cl)cc4Cl)c32)sc1Cl` [Compound #185, (E)-5-chloro-N-((2-(1-(2,4-dichlorobenzyl)-1,4,5,6-tetrahydro-7H-indazol-7-ylidene)ethyl)carbamoyl)-4-methylthiophene-2-sulfonamide] had an inhibitory constant (Ki) of 1 nM.
